Test results reported in patent US20180271847A1, “TREATMENT OF ACUTE TRAUMATIC INJURY” (priority 2015, published 2018).

Key:
sciatic nerve crush = experiment: Electron microscopy of sciatic nerve after crush injury with local 4-AP PLGA films; type: in vivo
Text: A comparison of the axonal area of randomly chosen individual axons of vehicle treated and 4-AP treated mice (n=4 for each experimental group; 40 axons analyzed per mouse) is shown. […] (**: p<0.01; ANOVA).
In the experiment below, mice received crush injuries to the sciatic nerve and then a sustained release formulation of 4-AP in a PLGA formulation (4-AP films) was applied locally at the site of injury. At the time that nerve conduction velocity began to recover, nerves were isolated and studied by electron microscopy. […] In uninjured myelinated axons, the average area of a myelinated axon (excluding the myelin) was 11.2+/−1.3 μm^2. In injured nerves treated with PLGA film only, the average area of myelinated axons decreased to 5.7+/−0.2 μm^2 (FIG. 9A). In nerves treated with 4-AP-containing films, the average area of myelinated axons was 6.7+/−0.4 μm^2 (p<0.05 versus mice treated only with film). In addition, the proportion of axons with areas above the average value for uninjured nerves was 5+/−3% in injured nerves treated with vehicle alone but increased to 15+/−2% in nerves treated with 4-AP containing films (p<0.05).
On day 21 after injury, the average thickness of the myelin within the injured area was 0.53+/−0.03 μm but was 0.95+/−0.14 μm with localized 4-AP administration (p<0.01), as compared with an average myelin thickness in uninjured nerves of 1.26+/−0.08 μm. […] The myelin area was also measured (FIG. 9C, D) and it was determined that the average cross-sectional area of myelin per myelinated large axon in uninjured nerve was 14.8+/−1.7 μm^2, 4.9+/−0.3 μm^2 in injured nerve, and was restored to 10.1+/−0.7 μm^2 with localized 4-AP administration (p<0.01). In 4-AP treated mice, 21.2+/−9.3% of axons had myelin areas that were above the average for uninjured nerve, while this value in vehicle-treated mice was only 1.9+/−1.4%.
The benefits of treatment were also observed by analysis of the ratio of the area of the axon to the area of the axon plus associated myelin. This g^area ratio, a variant of the usually employed g-ratio, was calculated due to the decreased circularity in injured nerve. […] However, with local 4-AP treatment, the g^area-ratio was in the normal range of 0.43+/−0.09 (p<0.01) (FIG. 9D).
The number of total myelinated axons per TEM grid examined (2310 μm^2) was 82+/−5 axons in undamaged nerve, as compared with 55+/−4 axons in injured vehicle-treated mice and 71+/−4 axons in 4-AP treated mice (p<0.01 for vehicle-treated vs. 4-AP treated mice).

motor neurons = experiment: Count of large NeuN+ putative motor neurons in spinal cord 28 days after injury; type: in vivo; conditions: rats, 28 days after spinal cord injury; large NeuN+ cells, ventral side of the cord
Text: FIGS. 8A-8C show the rescue of motor neurons by administration of 4-AP in acute traumatic injury to the spinal cord of the central nervous system. Another example of an unanticipated ability of the administration of 4-AP to provide benefit in acute traumatic injury was obtained by examining the number of motor neurons present in spinal cords of rats analyzed 28 days after injury, as in Example 1. Tissue sections were labeled with antibodies to the NeuN antigen, which is a marker of all neuronal populations. Due to the size and location of these neurons, they can only be motor neurons. Large neurons on the ventral side of the cord were then counted, in regions similarly distal or proximal to the lesion site. […] FIGS. 8B and 8C are graphs showing quantification of large NeuN+ cells in 1 mm^3 region proximal (p=0.06) and distal (p=0.04) to the lesion edge in 4-AP and control sections. […]
Rescue of motor neurons by administration of 4-AP in acute traumatic injury to the spinal cord of the central nervous system. Another example of an unexpected ability of the administration of 4-AP to provide benefit in acute traumatic injury was obtained by examining the number of motor neurons present in spinal cords of rats analyzed 28 days after injury, as in Example 1. […] Large neurons on the ventral side of the cord were then counted, in regions similarly distal or proximal to the lesion site.

[1] = test system: contusion injuries to the spinal cord; experiment: Behavioral analysis of motor function after spinal cord contusion injury; type: in vivo, Long Evans rats; conditions: rats
Procedure: Experiments were initiated with behavioral analysis of rats receiving contusion injuries to the spinal cord, which is one of the most widely studied of all experimental models of traumatic injury. 8-10 week old Long Evans rats (female) underwent laminectomy at thoracic vertebrae 9 and a 200 kilodyne impact was delivered to the spinal cord using an the Infinite Horizons impactor. Animals were allowed to recover on a heated pad and then treatment was started 24 hours after surgery in order to determine whether a clinically useful window of opportunity for initiation of treatment exists for use of this intervention. Animals received 1 mg/kg 4-AP twice a day for seven days, then received 1 mg/kg 4-AP […] for the following seven days. After two weeks, the animals were taken off 4-AP entirely and allowed to continue for 2 weeks to test for stability of recovery.
FIGS. 1-4 provide evidence of enhanced recovery of a variety of aspects of motor function. […] Of particular interest were observations that when rats were switched to once-a-day administration of 4-AP and all behavioral analyses were conducted at a time point when the 4-AP half-life in rats predicts that levels in vivo were far below those necessary to observe any effects on motor function, recovery of function was still seen at a time when active levels of 4-AP would not have been present. […] FIG. 2 provides information on the speed of the paw during its swing movement (i.e., stride length/swing time). […] FIG. 3 provides information on the distance between the outer toes (i.e., toe spread), a sensitive indicator of normal motor function in the foot itself. […] In contrast, rats treated with 4-AP show normal behavior beginning 10 days post-injury, and this behavior is maintained when drug treatment ends at day 14. FIG. 4 provides information on the length of the foot print, a sensitive indicator of normal motor function in the foot itself. […] In contrast, rats treated with 4-AP show normal behavior beginning 10 days post-injury, and this behavior is maintained when drug treatment ends at day 14. All improvements were durable when treatment was stopped at 2 weeks post-injury.

P-zero myelin protein = experiment: P0 myelin protein in tissue lysates after sciatic nerve crush; type: in vivo; conditions: mice, tissue lysates at 21 days post-injury/treatment
[2] = mice, localized 4-AP (PLGA films)
[3] = spinal cord contusion, 1 mg/kg 4-AP for 14 days, maintained after treatment ends at day 14

## Nc1ccncc1 [4-AP, 4-aminopyridine]
Sciatic nerve crush; 21 days after injury
  myelinated axons with a g^area-ratio less than the average for uninjured mice: 54.4+/−18.5%
Sciatic nerve crush; mice, 21 days after injury, local 4-AP treatment
  average g^area-ratio (area of the axon to area of the axon plus associated myelin): 0.43+/−0.09
Sciatic nerve crush; mice, 21 days post injury
  number of total myelinated axons per TEM grid examined (2310 μm^2): 71+/−4 axons
Sciatic nerve crush; mice, day 21, localized 4-AP (PLGA films)
  axons with myelin thickness above the average for uninjured nerve: 21.4+/−10.8%
Sciatic nerve crush; mice, day 21 after injury, localized 4-AP (PLGA films)
  average thickness of the myelin within the injured area: 0.95+/−0.14 μm
Sciatic nerve crush; [2]
  average cross-sectional area of myelin per myelinated large axon: 10.1+/−0.7 μm^2
  axons with myelin areas above the average for uninjured nerve: 21.2+/−9.3%
Motor neurons
  number of motor neurons in regions distal to the injury: clearly significant increase in the number of motor neurons
  number of motor neurons in regions proximal to the injury: very similar degree of increase in motor neurons
[1]; 200 kilodyne contusion at thoracic vertebrae 9, 1 mg/kg 4-AP twice a day for seven days then seven further days, started 24 hours after surgery
  Basso, Beattie and Bresnahan (BBB) scores, recovery versus placebo (saline): significant improvement over placebo (saline) treated rats as early as 3 days after treatment
[1]; [3]
  length of the foot print: normal behavior beginning: 10 days post-injury
  toe spread (distance between the outer toes): normal behavior beginning: 10 days post-injury
[1]; spinal cord contusion, 1 mg/kg 4-AP for 14 days, normal defined by sham surgery group, maintained after treatment ends at day 14
  return to normal swing speed (stride length/swing time): ≤ 10 days post-injury
[1]; spinal cord contusion, 1 mg/kg 4-AP for 14 days, through the rest of the 28 days of analysis
  motor function after treatment was stopped 14 days after injury: durable improvements in motor function
P-zero myelin protein
  more P0 protein in the lesion area than in nerves of vehicle-treated animals: 61+/−15%
